Results reported in US20200385370A1 (SYNBLIA THERAPEUTICS, INC., priority 2017, published 2020).

Molecular target: T1, GST tagged IRAK4 (Homo sapiens, UniProt Q9NWZ3)
T1 construct: purchased SignalChem
T1 sequence (Q9NWZ3 1-460): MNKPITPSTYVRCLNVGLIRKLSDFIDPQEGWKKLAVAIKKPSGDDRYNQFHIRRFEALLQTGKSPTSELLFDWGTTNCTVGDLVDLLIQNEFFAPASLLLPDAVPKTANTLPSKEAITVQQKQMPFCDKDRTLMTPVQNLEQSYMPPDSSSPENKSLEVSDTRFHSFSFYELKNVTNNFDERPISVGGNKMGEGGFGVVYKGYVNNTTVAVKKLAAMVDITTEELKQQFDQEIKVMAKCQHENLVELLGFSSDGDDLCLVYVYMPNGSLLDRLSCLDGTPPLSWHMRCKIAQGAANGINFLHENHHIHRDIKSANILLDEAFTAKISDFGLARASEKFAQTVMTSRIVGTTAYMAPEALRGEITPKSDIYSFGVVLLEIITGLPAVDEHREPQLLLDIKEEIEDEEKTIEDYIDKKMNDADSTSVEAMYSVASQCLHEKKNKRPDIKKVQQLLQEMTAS
Assay: IRAK4 kinase activity assay, IMAP fluorescence polarization, phosphorylation of fluorescently labeled peptide
Format: biochemical
Settings: 0.5 nM GST tagged IRAK4, 100 nM peptide substrate, 100 μM ATP, 30 minutes at 25° C.
Protocol: The kinase activity of IRAK4 is measured by its ability to phosphorylate a fluorescently labeled synthetic peptide in the presence of ATP. The assay format is based on the Immobilized Metal Ion Affinity-Based Fluorescence Polarization (IMAP) platform developed by Molecular Devices. Briefly, reaction mixture (20 μL) contains the assay buffer (20 mM Tris.Cl, pH 7.2, 1 mM MgCl2, 1 mM DTT, and 0.02% Tween 20), 0.5 nM GST tagged IRAK4 (SignalChem), 100 nM peptide substrate and 100 μM ATP. The amino acid sequence of the peptide substrate is 5FAM-RKRQGSVRRRVH-COOH (Cat #: RP7030, Molecular Devices). The reaction is initiated by adding substrates ATP and RP7030, and terminated by adding Stop solution (60 μL) after 30 minutes of incubation at 25° C. The Stop solution is prepared with IMAP Progressive Reagent A/B and Binding reagent according to vender's instruction. The extent of phosphorylation of the peptide is measured by changes in Fluorescence Polarization (FP) resulting from binding of phosphate group on the peptide with immobilized metal coordination complexes on the nanoparticles included in the Stop solution. Errors in the calculated IRAK4 IC50 values range from 4-12% from duplicate experiments.

| SMILES | IC50 [µM] |
| --- | --- |
| NC(=O)c1cc2ccnc3c2cc1OCCOCC(=O)N1CC(CO3)C1 [Compound XIV, 5-oxo-2,7,10-trioxa-1(1,7)-isoquinolina-4(3,1)-azetidinacyclodecaphane-16-carboxamide] | 0.5 to 3 |
| NC(=O)c1cc2ccnc3c2cc1OCCOCN1C(=O)CC[C@H]1CO3 [XVIII, (S)-4^5-oxo-2,6,9-trioxa-1(1,7)-isoquinolina-4(2,1)-pyrrolidinacyclononaphane-1^6-carboxamide] | < 0.5 |
| CC[C@@H]1CC(=O)N2COCCOc3cc4c(nccc4cc3C(N)=O)OC[C@H]12 [XIX, (4^2S, 4^3R)-4^3-ethyl-4^5-oxo-2,6,9-trioxa-1 (1,7)-isoquinolina-4 (2,1)-pyrrolidinacyclononaphane-1^6-carboxamide] | 0.5 to 3 |
| COc1cc2c(OC[C@@H]3CCC(=O)N3)nccc2cc1C(N)=S [Compound XI, (S)-7-methoxy-1-((5-oxopyrrolidin-2-yl)methoxy)isoquinoline-6-carbothioamide] | 0.5 to 3 |
| COc1cc2c(N[C@@H]3CCNC3)nccc2cc1C(N)=O [Compound XXXII, (R)-7-methoxy-1-(pyrrolidin-3-ylamino)isoquinoline-6-carboxamide] | 0.5 to 3 |
| NC(=O)c1cc2ccnc3c2cc1OCCOCCN1C(=O)CCC1CO3 (centres unmarked) [Compound IX, 4^5-oxo-2,7,10-trioxa-1(1,7)-isoquinolina-4(2,1)-pyrrolidinacyclodecaphane-1^6-carboxamide] | 3 to 10 |
| COc1cc2c(ccn2[C@H]2CC[C@H](N)C2)cc1C(N)=O [XXIII, 1-((1S, 3S) 3-aminocyclopentyl)-6-methoxy-1H-indole-5-carboxamide] | 0.5 to 3 |
| COc1cc2c(NCC3CCC(=O)N3)nccc2cc1C(N)=O (centres unmarked) [VII, 7-methoxy-1-(((5-oxopyrrolidin-2-yl)methyl)amino) isoquinoline-6-carboxamide] | 0.5 to 3 |
| NC(=O)c1cc2ccnc3c2cc1OCCOCN1C(=O)OCC1CO3 (centres unmarked) [XVII, 1^2-oxo-3,5,8-trioxa-1(4,3)-oxazolidina-4(1,7)-isoquinolinacyclononaphane-4^6-carboxamide] | 0.5 to 3 |
| CCC[C@@H]1CC(=O)N2COCCOc3cc4c(nccc4cc3C(N)=O)OC[C@H]12 [Compound XXIV, (4^2S,4^3R)-4^5-oxo-4^3-propyl-2,6,9-trioxa-1 (1,7)-isoquinolina-4 (2,1)-pyrrolidinacyclononaphane-1^6-carboxamide] | 0.5 to 3 |
| COc1cc2c(OCC3CCC(=O)N3)nccc2cc1OC(N)=O (centres unmarked) [II, 7-methoxy-1-((5-oxopyrrolidin-2-yl)methoxy)isoquinolin-6-yl carbamate] | 3 to 10 |
| CC[C@@H]1CC(=O)N[C@@H]1CNc1nccc2cc(C(N)=O)c(OC)cc12 [Compound XXVIII, 1-((((2S, 3R)-3-ethyl-5-oxopyrrolidin-2-yl)methyl)amino)-7-methoxyisoquinoline-6-carboxamide] | < 0.5 |
| COc1cc2c(OC[C@@H]3CCC(=O)N3)nccc2cc1C(=O)S [XIII, (S)-7-methoxy-1-((5-oxopyrrolidin-2-yl)methoxy) isoquinoline-6-carbothioic S-acid] | 0.5 to 3 |
| C[C@@H]1CC(=O)N2COCCOc3cc4c(nccc4cc3C(N)=O)OC[C@H]12 [Compound XXV, (4^2S, 4^3R)-4^3-methyl-4^5-oxo-2,6,9-trioxa-1 (1,7)-isoquinolina-4 (2,1)-pyrrolidinacyclononaphane-1^6-carboxamide] | < 0.5 |
| COc1cc2c(OCC3CCC(=O)N3)nccc2cc1C(=O)NO (centres unmarked) [IV, N-hydroxy-7-methoxy-1-((5-oxopyrrolidin-2-yl)methoxy) isoquinoline-6-carboxamide] | 3 to 10 |

Further lines, results first:

| IC50 [µM] | SMILES |
| --- | --- |
| 0.5 to 3 | COc1cc2c(N[C@@H]3CCCNC3)nccc2cc1C(N)=O [Compound XXIX, (R)-7-methoxy-1-(piperidin-3-ylamino) isoquinoline-6-carboxamide] |
| 3 to 10 | COc1cc2c(N[C@@H]3CCCN(C(=O)CC#N)C3)nccc2cc1C(N)=O [Compound XXX, (R)-1-((1-(2-cyanoacetyl)piperidin-3-yl)amino)-7-methoxyisoquinoline-6-carboxamide] |
| 0.5 to 3 | COc1cc2c(N3CCC(N)CC3)nccc2cc1C(N)=O [Compound XXVII, 1-(4-aminopiperidin-1-yl)-7-methoxyisoquinoline-6-carboxamide] |
| < 0.5 | CC#Cc1cnc(N2CCC[C@H](N)C2)c2cc(OC)c(C(N)=O)cc12 [XXXIV, (S)-1-(3-aminopiperidin-1-yl)-7-methoxy-4-(prop-1-yn-1-yl)soquinoline-6-carboxamide] |
| < 0.5 | CC#Cc1cnc(NC[C@@H]2CCC(=O)N2)c2cc(OC)c(C(N)=O)cc12 [Compound XXII, (S)-7-methoxy-1-(((5-oxopyrrolidin-2-yl)methyl)amino)-4-(prop-1-yn-1-yl) isoquinoline-6-carboxamide] |
| 0.5 to 3 | COc1cc2c(N3CCC[C@H](N)C3)ncc(Br)c2cc1C(N)=O [XXXV, (S)-1-(3-aminopiperidin-1-yl)-4-bromo-7-methoxyisoquinoline-6-carboxamide] |
| 0.5 to 3 | COc1cc2c(N3CCC(C)(CN)CC3)nccc2cc1C(N)=O [Compound XXVI, 1-(4-(aminomethyl)-4-methylpiperidin-1-yl)-7-methoxyisoquinoline-6-carboxamide] |
| < 0.5 | COc1cc2c(N3CCC[C@H](N)C3)nccc2cc1C(N)=O [Compound XX, (S)-1-(3-aminopiperidin-1-yl)-7-methoxyisoquinoline-6-carboxamide] |
| 0.5 to 3 | COc1cc2c(N3CCC[C@H](O)C3)nccc2cc1C(N)=O [Compound XXI, (S)-1-(3-hydroxypiperidin-1-yl)-7-methoxyisoquinoline-6-carboxamide] |
| 3 to 10 | COc1cc2c(S[C@@H]3CCCN(C(=O)CC#N)C3)nccc2cc1C(N)=O [Compound XXXI, (R)-1-((1-(2-cyanoacetyl)piperidin-3-yl)thio)-7-methoxyisoquinoline-6-carboxamide] |
| 0.5 to 3 | COc1cc2c(N3CCC[C@H](N)C3)ncc(C#N)c2cc1C(N)=O [XXXVI, (S)-1-(3-aminopiperidin-1-yl)-4-cyano-7-methoxyisoquinoline-6-carboxamide] |
